Here are results for one compound from patent US20230248689A1, “PHARMACEUTICAL FORMULATIONS OF GRISEOFULVIN FOR LONG-TERM OCULAR DELIVERY” (Purdue Research Foundation, priority 2020, published 2023).

The subject of experiment [1] is human retinal endothelial cells (HREC). Nature of the experiment: Long-term proliferation assay on HRECs with release samples collected over time. In kind it is cell-based. As for the experimental part: The formulations of the present invention, i.e. microparticles (MPs) or nanoparticles (NPs) of the griseofulvin (GRF) were tested for in vitro cell study, in particular long-term proliferation assay. This study provides an estimation of in vivo effect of griseofulvin formulations. To compare the long-term antiproliferative effect on human retinal endothelial cells (HREC), time averaged proliferation inhibition index (PII) was calculated (Σ AUC/time) from the plot of % proliferation at each time vs. time. The higher the PII indicating the prolonged anti-proliferative effects on HREC.
The long-term anti-proliferation effect of GRF loaded NPs from example 3B was studied, wherein GRF-PLGA-NPs were dispersed in 0.5 mL of growth media at GRF concentration ranging from 600 μM to 1200 μM. At specific time points (1, 2, 3, 4, 5, 6, 7, 10, 15, 20, and 25 days), tubes were centrifuged at 5k rpm for 5 minutes and the supernatant was collected and stored at −80° C. Pellet was redispersed in 0.5 mL fresh media, and the incubation was continued. […]
Human retinal endothelial cells (HREC) were plated in transparent 96 well plates at a density of 2500 cells per well in 100 μL of growth medium and incubated for 24 h at 37° C. […] Fluorescence intensity of each well was read with excitation and emission wavelengths of 560 nm and 590 nm, respectively. […]

The test system of experiment [2] is human retinal endothelial cells (HRECs). Kind of experiment: Anti-proliferative effect on HRECs (Alamar Blue). In kind it is cell-based. The settings on record: 100 μM GRF equivalent, 48 hours. As for the experimental part:
Human retinal endothelial cells (HREC) were plated in transparent 96 well plates at a density of 2500 cells per well in 100 μL of growth medium and incubated for 24 h at 37° C. The medium was replaced with the samples collected at different time points. After 48 hours incubation, 11.1 μL Alamar Blue reagent was added to each well. After 4 hours incubation, plates were centrifuged at 200 g for 5 minutes, and 50 μL supernatant was transferred to black 96 well plates. Fluorescence intensity of each well was read with excitation and emission wavelengths of 560 nm and 590 nm, respectively.
(In general: Resazurin is reduced to fluorescent resorufin, in cell work by metabolically active cells.)

With `COC1=CC(=O)C[C@@H](C)[C@]12Oc1c(Cl)c(OC)cc(OC)c1C2=O` [Free GRF, (2S,6′R)-7-chloro-2′,4,6-trimethoxy-6′-methyl-3H-spiro[benzofuran-2,1′-cyclohexan]-2′-ene-3,4′-dione], in experiment [1] (release samples over the incubation period), the “long-term anti-proliferative effect on HREC (in words)” value is reported as “effective only at the first time point”. Moreover, in experiment [1] (Σ AUC/time from % proliferation vs. time plot, HREC), the “time averaged proliferation inhibition index (PII)” value is recorded as 13.6. Also, the “inhibited proliferation of HRECs” value in experiment [2] amounted to 53.5%.
